In this experiment the target is T1, human liver FBPase (Homo sapiens, UniProt P09467).
T1 construct: made in house; host or cells: E. coli
T1 sequence (P09467 2-338 limits assumed): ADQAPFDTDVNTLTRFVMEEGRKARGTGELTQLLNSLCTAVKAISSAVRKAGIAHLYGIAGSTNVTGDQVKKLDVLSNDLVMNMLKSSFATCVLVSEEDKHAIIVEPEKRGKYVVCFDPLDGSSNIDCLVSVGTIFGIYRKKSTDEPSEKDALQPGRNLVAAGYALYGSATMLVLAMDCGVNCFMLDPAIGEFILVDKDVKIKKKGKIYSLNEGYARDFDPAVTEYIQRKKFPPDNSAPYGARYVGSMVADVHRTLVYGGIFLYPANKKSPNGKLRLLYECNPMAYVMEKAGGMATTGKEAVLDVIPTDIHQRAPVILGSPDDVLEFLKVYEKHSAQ
The experiment is described as follows: FBPase assay: inorganic phosphate release (malachite green). In kind it is biochemical. The following applies: recombinant human liver FBPase, 50 μM fructose-1,6-bisphosphate, read-out at 620 nm. In short, it runs like this: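 Recombinant human liver FBPase (E. coli-expressed, >90% pure), 25 ng per reaction, with 50 μM fructose-1,6-bisphosphate in 50 mM HEPES-KOH pH 7.2, 2 mM MgCl2, 2 mM EDTA, 1 mM DTT, 1% DMSO. After 50 min at room temperature, released phosphate was complexed with malachite green/ammonium molybdate and read at 620 nm.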
As usually defined, the IC50 is the point on the concentration scale where inhibition reaches its midpoint. As for `CCc1nc(NC(=O)NS(=O)(=O)c2cc(C)c(CCOC(C)=O)s2)sc1SC` [Example 83, 2-{5-[({[4-Ethyl-5-(methylthio)-1,3-thiazol-2-yl]carbamoyl}amino)sulfonyl]-3-methyl-2-thienyl}ethyl acetate], the IC50 turned out to be 134 nM.
Take `CCc1nc(NC(=O)NS(=O)(=O)c2cc(C)c(CCO)s2)sc1SC` [Example 84, N-{[4-Ethyl-5-(methylthio)-1,3-thiazol-2-yl]carbamoyl}-5-(2-hydroxyethyl)-4-methylthiophene-2-sulfonamide]: the IC50 turned out to be 78 nM.
For the compound `CSc1sc(NC(=O)NS(=O)(=O)c2cc(C)c(CCOC(C)=O)s2)nc1C` [Example 85, 2-{3-Methyl-5-[({[4-methyl-5-(methylthio)-1,3-thiazol-2-yl]carbamoyl}amino)sulfonyl]-2-thienyl}ethyl acetate], the IC50 worked out at 160 nM.
On to `CSc1sc(NC(=O)NS(=O)(=O)c2cc(C)c(CCO)s2)nc1C` [Example 86, 5-(2-Hydroxyethyl)-4-methyl-N-{[4-methyl-5-(methylthio)-1,3-thiazol-2-yl]carbamoyl}thiophene-2-sulfonamide], for which the IC50 was found to be 71 nM.
The value for `COCc1nc(NC(=O)NS(=O)(=O)c2cc(C)c(CCOC(C)=O)s2)sc1SC` [Example 87, 2-{5-[({[4-(Methoxymethyl)-5-(methylthio)-1,3-thiazol-2-yl]carbamoyl}amino)sulfonyl]-3-methyl-2-thienyl}ethyl acetate] was 501 nM.
For `COCc1nc(NC(=O)NS(=O)(=O)c2cc(C)c(CCO)s2)sc1SC` [Example 88, 5-(2-Hydroxyethyl)-N-{[4-(methoxymethyl)-5-(methylthio)-1,3-thiazol-2-yl]carbamoyl}-4-methylthiophene-2-sulfonamide], the IC50 was found to be 369 nM.
As for `COCCc1sc(S(=O)(=O)NC(=O)Nc2nc3c(OC)cccc3s2)cc1C` [Example 89, N-[(4-Methoxy-1,3-benzothiazol-2-yl)carbamoyl]-5-(2-methoxyethyl)-4-methylthiophene-2-sulfonamide], the IC50 came out at 263 nM.
The value for `COCCc1sc(S(=O)(=O)NC(=O)Nc2nc3ccc(OC)nc3s2)cc1C` [Example 90, 5-(2-Methoxyethyl)-N-[(5-methoxy[1,3]thiazolo[5,4-b]pyridin-2-yl)carbamoyl]-4-methylthiophene-2-sulfonamide] was 842 nM; that for `COCCc1sc(S(=O)(=O)NC(=O)Nc2nc3c(C)cccc3s2)cc1C` [Example 91, 5-(2-Methoxyethyl)-4-methyl-N-[(4-methyl-1,3-benzothiazol-2-yl)carbamoyl]thiophene-2-sulfonamide] was 375 nM.
The figure for `COc1ccc(Cl)c2sc(NC(=O)NS(=O)(=O)c3cc(C)c(CCO)s3)nc12` [Example 92, N-[(7-Chloro-4-methoxy-1,3-benzothiazol-2-yl)carbamoyl]-5-(2-hydroxyethyl)-4-methylthiophene-2-sulfonamide] is 38 nM.
The figure for `COc1cccc2sc(NC(=O)NS(=O)(=O)c3cc(C)c(CCO)s3)nc12` [Example 93, 5-(2-Hydroxyethyl)-N-[(4-methoxy-1,3-benzothiazol-2-yl)carbamoyl]-4-methylthiophene-2-sulfonamide] is 141 nM; for `Cc1cc(S(=O)(=O)NC(=O)Nc2nc3c(C)cccc3s2)sc1CCO` [Example 94, 5-(2-Hydroxyethyl)-4-methyl-N-[(4-methyl-1,3-benzothiazol-2-yl)carbamoyl]thiophene-2-sulfonamide] it is 64 nM.
Take `COc1sc(NC(=O)NS(=O)(=O)c2csc(C)c2)nc1C` [Example 95, N-[(5-Methoxy-4-methyl-1,3-thiazol-2-yl)carbamoyl]-5-methylthiophene-3-sulfonamide]: the IC50 is 594 nM.
The value for `COCCc1sc(S(=O)(=O)NC(=O)Nc2nc(C)c(OC)s2)cc1C` [Example 96, 5-(2-Methoxyethyl)-N-[(5-methoxy-4-methyl-1,3-thiazol-2-yl)carbamoyl]-4-methylthiophene-2-sulfonamide] was 637 nM; that for `COCCc1sc(S(=O)(=O)NC(=O)Nc2ncc(OC)s2)cc1C` [Example 97, 5-(2-Methoxyethyl)-N-[(5-methoxy-1,3-thiazol-2-yl)carbamoyl]-4-methylthiophene-2-sulfonamide] was 652 nM; that for `Cc1cc(S(=O)(=O)NC(=O)Nc2nc(C)c(SC(F)(F)F)s2)sc1CCO` [Example 98, 6-(2-Hydroxyethyl)-4-methyl-N-({4-methyl-5-[(trifluoromethyl)thio]-1,3-thiazol-2-yl}carbamoyl)thiophene-2-sulfonamide] was 177 nM.

The record behind these values is patent US7973051B2 (Hoffman-La Roche Inc., priority 2007, dated 2011).
